Experimental data from patent US20230348447A1, “OXAZOLIDINONE COMPOUNDS, LIPOSOME COMPOSITIONS COMPRISING OXAZOLIDINONE COMPOUNDS AND METHOD OF USE THEREOF” (priority 2020, published 2023).
Converted amounts (≈) assume the structure as drawn. Where two headings read alike, the source gives them in different places.

Assays:
[1] = tested on: African green monkey kidney (Vero; ATCC # CCL81) cells; assay: In vitro cytotoxicity (PrestoBlue cell viability), Vero; format: cell-based
[2] = tested on: human hepatocyte/liver (HepG2; ATCC #HB8065) cells; assay: In vitro cytotoxicity (PrestoBlue cell viability), HepG2; format: cell-based
[3] = tested on: M.tb H37Rv; assay: Broth microdilution MIC with Alamar blue endpoint (MABA) / OD600; format: cell-based, Mycobacterium tuberculosis
[4] = tested on: M. Tuberculosis Erdman or H37Rv vs VERO or HepG2 cells; assay: Selectivity Index (mammalian cell IC50 / bacterial MIC); set-up: species or system Mycobacterium tuberculosis
[5] = tested on: M.tb Erdman; assay: Broth microdilution MIC with Alamar blue endpoint (MABA) / OD600; format: cell-based, Mycobacterium tuberculosis
[6] = Liposome loading / encapsulation efficiency (General protocol)
[7] = Chlorocebus sabaeus, Vero, 72 h; read-out: Cell viability IC50, VERO
[8] = Homo sapiens, HepG2, 72 h; read-out: Cell viability IC50, HepG2
[9] = Mycobacterium tuberculosis, H37RV; read-out: Mycobacterium tuberculosis MIC, H37Rv
[10] = Mycobacterium tuberculosis, ERDMAN; read-out: Mycobacterium tuberculosis MIC, Erdman
[11] = Mycobacterium tuberculosis, H37RV, read-out: Mycobacterium tuberculosis MIC, H37Rv
[12] = Mycobacterium tuberculosis, ERDMAN, read-out: Mycobacterium tuberculosis MIC, Erdman
[13] = Chlorocebus sabaeus, Vero, 72 h, read-out: Cell viability IC50, VERO
[14] = Homo sapiens, HepG2, 72 h, read-out: Cell viability IC50, HepG2

CN(C)C[C@H]1CN(c2ccc(-c3ccc(-c4nnn(C)n4)nc3)c(F)c2)C(=O)O1 [AKG-1]
IC50 [1, 7]: 113 µg/mL (≈ 283 µM) | IC50 [2, 8]: 116 µg/mL (≈ 292 µM) | MIC [3, 9]: > 8 µg/mL | Selectivity Index (SI) Erd/HepG2 [4]: <14.5 | Selectivity Index (SI) Erd/VERO [4]: <14.1 | MIC [5, 10]: > 8 µg/mL

CCN(CC)C[C@H]1CN(c2ccc(-c3ccc(-c4nnn(C)n4)nc3)c(F)c2)C(=O)O1 [AKG-2]
IC50 [1, 7]: 67.9 µg/mL (≈ 160 µM) | IC50 [2, 8]: 24.5 µg/mL (≈ 57.6 µM) | MIC [3, 9]: > 8 µg/mL | Selectivity Index (SI) Erd/HepG2 [4]: <3.1 | Selectivity Index (SI) Erd/VERO [4]: <8.5 | MIC [5, 10]: > 8 µg/mL

CN(C)CCCC(=O)OC[C@H]1CN(c2ccc(-c3ccc(-c4nnn(C)n4)nc3)c(F)c2)C(=O)O1 [AKG-5]
IC50 [1, 7]: 32.5 µg/mL (≈ 67.2 µM) | IC50 [2, 8]: 30.8 µg/mL (≈ 63.7 µM) | MIC [3, 9]: 1 µg/mL (≈ 2.07 µM) | Selectivity Index (SI) Erd/HepG2 [4]: 30.8 | Maximum encapsulated drug payload ([6]; 0.5 M AS, 0.5 mol% PEG): 627 g/mol PhL | loading efficiency at or near the maximum drug load ([6]; 1 N TEA-SOS, DL0 750-1500 g/mol PhL): ≥ 96.0% | maximum drug load ([6]; 1 N TEA-SOS, DL0 750-1500 g/mol PhL, no buffer): 982-1197 g/mol PhL | stability during liposome loading (HPLC) ([6]; Example 12): Degradation of AKG-5 during the liposome loading was detected | Drug loading efficiency ([6]; PEG-DSG 0.5 mol%, 1 N TEA-SOS, DL0 500 g/mol PhL): 101.3 | Drug loading efficiency ([6]; PEG-DSG 0.5 mol%, […] AS, DL0 250 g/mol PhL): 98.5 | Drug loading efficiency ([6]; PEG-DSG 0.5 mol%, […] AS, DL0 500 g/mol PhL): 97.7 | Drug loading efficiency ([6]; PEG-DSG 5 mol%, 1 N TEA-SOS, DL0 500 g/mol PhL): 99.3 | MIC [5, 10]: 1 µg/mL (≈ 2.07 µM)

CN(C)CCC1CCN(C[C@H]2CN(c3ccc(-c4ccc(-c5nnn(C)n5)nc4)c(F)c3)C(=O)O2)CC1 [AKG-6]
IC50 [1, 7]: 27.4 µg/mL (≈ 53.9 µM) | IC50 [2, 8]: 15.5 µg/mL (≈ 30.5 µM) | MIC [3, 9]: > 8 µg/mL | Selectivity Index (SI) Erd/HepG2 [4]: <1.9 | Selectivity Index (SI) Erd/VERO [4]: 3.4 | MIC [5, 10]: > 8 µg/mL

CCN(CC)CCOC[C@H]1CN(c2ccc(-c3ccc(-c4nnn(C)n4)nc3)c(F)c2)C(=O)O1 [AKG-7]
IC50 [1, 7]: 104 µg/mL (≈ 221 µM) | IC50 [2, 8]: 11.2 µg/mL (≈ 23.9 µM) | MIC [3, 9]: > 8 µg/mL | Selectivity Index (SI) Erd/HepG2 [4]: <1.4 | Selectivity Index (SI) Erd/VERO [4]: 13.0 | MIC [5, 10]: > 8 µg/mL

CCN(CC)CCCNC[C@H]1CN(c2ccc(-c3ccc(-c4nnn(C)n4)nc3)c(F)c2)C(=O)O1 [AKG-8]
MIC [3, 11]: > 8 µg/mL | MIC [5, 12]: > 8 µg/mL

CCN(CC)CCNC[C@H]1CN(c2ccc(-c3ccc(-c4nnn(C)n4)nc3)c(F)c2)C(=O)O1 [AKG-9]
IC50 [1, 13]: 139 µg/mL (≈ 297 µM) | IC50 [2, 14]: 28.1 µg/mL (≈ 60 µM) | MIC [3, 11]: > 8 µg/mL | Selectivity Index (SI) Erd/HepG2 [4]: <3.5 | Selectivity Index (SI) Erd/VERO [4]: <17.4 | MIC [5, 12]: > 8 µg/mL

CN(C)CCC1CCN(c2ccc(-c3ccc(N4C[C@H](CO)OC4=O)cc3F)cn2)CC1 [AKG-11]
IC50 [1, 7]: 31.9 µg/mL (≈ 72.1 µM) | IC50 [2, 8]: 42.8 µg/mL (≈ 96.7 µM) | MIC [3, 9]: 4 µg/mL (≈ 9.04 µM) | Selectivity Index (SI) Erd/HepG2 [4]: 10.7 | Selectivity Index (SI) Erd/VERO [4]: 8.0 | MIC [5, 10]: 4 µg/mL (≈ 9.04 µM)

CN(C)CCNc1ccc(-c2ccc(N3C[C@H](CO)OC3=O)cc2F)cn1 [AKG-12]
IC50 [1, 13]: 89.1 µg/mL (≈ 238 µM) | IC50 [2, 14]: 67.6 µg/mL (≈ 181 µM) | MIC [3, 11]: 4 µg/mL (≈ 10.7 µM) | Selectivity Index (SI) Erd/HepG2 [4]: 16.9 | Selectivity Index (SI) Erd/VERO [4]: 22.3 | MIC [5, 12]: 4 µg/mL (≈ 10.7 µM)

CCN(CC)CCNc1ccc(-c2ccc(N3C[C@H](CO)OC3=O)cc2F)cn1 [AKG-13]
IC50 [1, 7]: 93.9 µg/mL (≈ 233 µM) | IC50 [2, 8]: 31.8 µg/mL (≈ 79 µM) | MIC [3, 9]: > 8 µg/mL | Selectivity Index (SI) Erd/HepG2 [4]: <4.0 | Selectivity Index (SI) Erd/VERO [4]: <11.7 | MIC [5, 10]: > 8 µg/mL

CN(C)CCCNc1ccc(-c2ccc(N3C[C@H](CO)OC3=O)cc2F)cn1 [AKG-14]
MIC [3, 9]: 8 µg/mL (≈ 20.6 µM) | MIC [5, 10]: 8 µg/mL (≈ 20.6 µM)

CCN(CC)CCCNc1ccc(-c2ccc(N3C[C@H](CO)OC3=O)cc2F)cn1 [AKG-15]
IC50 [1, 7]: 156 µg/mL (≈ 375 µM) | IC50 [2, 8]: 35.6 µg/mL (≈ 85.5 µM) | MIC [3, 9]: > 8 µg/mL | Selectivity Index (SI) Erd/HepG2 [4]: <4.5 | Selectivity Index (SI) Erd/VERO [4]: <19.5 | MIC [5, 10]: > 8 µg/mL

Cl.Cn1nnc(-c2ccc(-c3ccc(N4C[C@H](CNC(=O)CCN)OC4=O)cc3F)cn2)n1 [AKG-17]
Cell viability IC50, VERO ([1]; 72 h): >250 µg/mL | Cell viability IC50, HepG2 ([2]; 72 h): 37.3 µg/mL | Mycobacterium tuberculosis MIC, H37Rv [3]: 2 µg/mL | Mycobacterium tuberculosis MIC, Erdman [5]: 2 µg/mL

Cl.Cn1nnc(-c2ccc(-c3ccc(N4C[C@H](CNC(=O)CCCN)OC4=O)cc3F)cn2)n1 [AKG-18]
Cell viability IC50, VERO ([1]; 72 h): >250 µg/mL | Cell viability IC50, HepG2 ([2]; 72 h): 9.5 µg/mL | Mycobacterium tuberculosis MIC, H37Rv [3]: 2 µg/mL | Mycobacterium tuberculosis MIC, Erdman [5]: 2 µg/mL

Cl.Cn1nnc(-c2ccc(-c3ccc(N4C[C@H](CNC(=O)CCN)OC4=O)cc3F)cn2)n1 [AKG-19]
IC50 [1, 7]: > 250 µg/mL | IC50 [2, 8]: 42.2 µg/mL | MIC [3, 9]: > 8 µg/mL | Selectivity Index (SI) Erd/HepG2 [4]: 5.3 | Selectivity Index (SI) Erd/VERO [4]: >31.3 | MIC [5, 10]: > 8 µg/mL

CCN(CC)CCC(=O)OC[C@H]1CN(c2ccc(-c3ccc(-c4nnn(C)n4)nc3)c(F)c2)C(=O)O1 [AKG-20]
IC50 [1, 7]: > 250 µg/mL | IC50 [2, 8]: 15.1 µg/mL (≈ 30.3 µM) | MIC [3, 9]: 0.5 µg/mL (≈ 1 µM) | Selectivity Index (SI) Erd/HepG2 [4]: 30.2 | Selectivity Index (SI) Erd/VERO [4]: >500 | MIC [5, 10]: 0.5 µg/mL (≈ 1 µM)

CN(C)CCn1nnnc1-c1ccc(-c2ccc(N3C[C@H](CO)OC3=O)cc2F)cn1 [AKG-21]
IC50 [1, 7]: > 250 µg/mL | IC50 [2, 8]: 156 µg/mL (≈ 366 µM) | MIC [3, 9]: > 8 µg/mL | Selectivity Index (SI) Erd/HepG2 [4]: <19.5 | MIC [5, 10]: > 8 µg/mL

Cl.NCCn1nnc(-c2ccc(-c3ccc(N4C[C@H](CO)OC4=O)cc3F)cn2)n1 [AKG-23]
IC50 [1, 7]: > 250 µg/mL | IC50 [2, 8]: 7.3 µg/mL | MIC [3, 9]: 0.25 µg/mL | Selectivity Index (SI) Erd/HepG2 [4]: 29.2 | Selectivity Index (SI) Erd/VERO [4]: >1000 | MIC [5, 10]: 0.25 µg/mL

CCN(CC)CCn1nnc(-c2ccc(-c3ccc(N4C[C@H](CO)OC4=O)cc3F)cn2)n1 [AKG-24]
IC50 [1, 7]: 31.3 µg/mL (≈ 68.7 µM) | IC50 [2, 8]: 11.4 µg/mL (≈ 25 µM) | MIC [3, 9]: 1 µg/mL (≈ 2.2 µM) | Selectivity Index (SI) Erd/HepG2 [4]: 11.4 | Selectivity Index (SI) Erd/VERO [4]: 31.3 | MIC [5, 10]: 1 µg/mL (≈ 2.2 µM)

CN(C)CCCn1nnc(-c2ccc(-c3ccc(N4C[C@H](CO)OC4=O)cc3F)cn2)n1 [AKG-25]
IC50 [1, 7]: 182 µg/mL (≈ 412 µM) | IC50 [2, 8]: 9.4 µg/mL (≈ 21.3 µM) | MIC [3, 9]: 1 µg/mL (≈ 2.27 µM) | Selectivity Index (SI) Erd/HepG2 [4]: 9.4 | Selectivity Index (SI) Erd/VERO [4]: 182.0 | MIC [5, 10]: 1 µg/mL (≈ 2.27 µM)

CCN(CC)CCCn1nnc(-c2ccc(-c3ccc(N4C[C@H](CO)OC4=O)cc3F)cn2)n1 [AKG-26]
IC50 [1, 7]: 128 µg/mL (≈ 274 µM) | IC50 [2, 8]: 9 µg/mL (≈ 19.2 µM) | MIC [3, 9]: 2 µg/mL (≈ 4.26 µM) | Selectivity Index (SI) Erd/HepG2 [4]: 4.5 | Selectivity Index (SI) Erd/VERO [4]: 64.3 | MIC [5, 10]: 2 µg/mL (≈ 4.26 µM)

Cl.NCCCn1nnc(-c2ccc(-c3ccc(N4C[C@H](CO)OC4=O)cc3F)cn2)n1 [AKG-27]
IC50 [1, 7]: 5.6 µg/mL | IC50 [2, 8]: 9 µg/mL | MIC [3, 9]: 0.5 µg/mL | Selectivity Index (SI) Erd/HepG2 [4]: 18.0 | Selectivity Index (SI) Erd/VERO [4]: 11.2 | MIC [5, 10]: 0.5 µg/mL

CCN(CC)CCCn1nnc(-c2ccc(-c3ccc(N4C[C@H](CN)OC4=O)cc3F)cn2)n1 [AKG-31]
Selectivity Index (SI) Erd/HepG2 [4]: 26.4 | Selectivity Index (SI) Erd/VERO [4]: 223.0

COc1nc2ccc(Br)cc2cc1[C@@H](c1ccccc1)[C@@](O)(CCN(C)C)c1cccc2ccccc12 [Bedaquiline, reference compound]
MIC ([5]; Mycobacterium tuberculosis; M. tuberculosis Erdman / H37Rv, strains not separated; read-out: MIC): 0.125 µg/mL (≈ 0.225 µM)
